Assay results taken from paper PMC4421842 (Nature Communications, 2015).
“Also recorded” adds a separate entry of the source.

Tests used:
human erythrocytes = test: In-vitro haemolysis assay; assay type: cell-based; conditions: human red blood cells, 2 h at 37°C, 160 µg mL-1 or highest concentration solubility allowed
Protocol: Haemolysis assays were performed as previously described. Briefly, assays were performed using human erythrocytes within 3 days of receipt. One millilitre of human blood purchased from Bioreclamation, Inc. (Hicksville, NY) was centrifuged (10,000 × g, 2 min). The pellet was washed three times with sterile saline (0.9% NaCl in water) by repeated gentle suspension and centrifugation. The pellet was resuspended in RBC buffer (10 mM Na2HPO4, 150 mM NaCl, 1 mM MgCl2 pH 7.4). To evaluate haemolytic activity of DNM and derivatives, 1 μl either 3.2 mg ml^−1 DMSO stock (or the most concentrated stock of the compound available if not soluble at 3.2 mg ml^−1 in DMSO) was transferred to 0.5 ml Eppendorf tubes containing 19 μl RBC buffer. Negative control tubes contained 1 μl DMSO and 19 μl RBC buffer, and positive control tubes contained 1 μl DMSO and 19 μl sterile deionized water. A suspension of washed erythrocytes (10 μl) was added to each tubes and samples were incubated at 37 °C for 2 h. Samples were centrifuged at 10,000 × g for 2 min and the supernatants from each sample (25 μl) were transferred to a clear, sterile 384-well plate. The absorbance of these supernatants was measured at 540 nm using a SpectraMaxPlus384 absorbance plate reader (Molecular Devices). Per cent haemolysis of each sample was calculated relative to the average absorbance values measured for positive controls.

S83L E. coli DNA gyrase = molecular target: T1, S83L E. coli DNA gyrase (Escherichia coli, UniProt P0AES4+P0AES6, S83L); assay type: biochemical; conditions: DNA cleavage assay
T1 construct: His tag (pTRCHisA vector; purified on Ni-NTA); made in house; host or cells: E. coli One Shot BL21 Star (DE3)

FQR MRSA (NRS3) = test: In-vivo efficacy, mouse sepsis model; conditions: 50 mg kg^−1 oral gavage once daily for 10 days; n=15; Kaplan–Meier, log rank survival test
human topoisomerase II = molecular target: T2, human topoisomerase II (Homo sapiens, UniProt P11388); test: Human topoisomerase decatenation assay; assay type: biochemical; conditions: decatenation assay
T2 construct: purchased Inspiralis
Protocol: The decatenation assay was performed with the Human Topo II Decatenation Assay Kit (Inspiralis), according to the manufacturer's instructions, with minor modifications. First, a master mix was made containing 2 μl of 10 × assay buffer (500 mM Tris-HCl pH 7.5, 1250, mM NaCl, 100 mM MgCl2, 50 mM DTT, 1,000 μg ml^−1 albumin), 0.67 μl of 30 mM ATP, 1.34 μl of 0.1 ng μl^−1 kDNA, and 14.3 μl of nuclease-free water per sample is made. DMSO or 30 × compound is added to a 0.5-ml Eppendorf tube (0.67 μl per tube). The master mix is then added to each tube (18.3 μl per tube). Finally, 1 U of human topoisomerase (1 μl of 1 U μl^−1 stock) is added to each tube for a final volume of 20 μl. The tubes are then incubated at 37 °C for 30 min. Reactions are stopped by the addition of 20 μl of 24:1 chloroform:isoamyl alcohol and 20 μl of stop dye (40% sucrose, 1 mM EDTA, 100 mM Tris-HCl pH 7.5, 0.5 μg ml^−1 bromophenol blue). Samples were run on 1% agarose gels containing 0.5 μg ml^−1 ethidium bromide for 1 h at 110 V or until the dye front was approximately halfway down the gel. Gels were imaged on a Molecular Imager Gel Doc XR+ (Biorad).

Herring Sperm DNA = test: Intercalation assay (ethidium bromide displacement); assay type: binding
Protocol: Intercalation assays were performed as previously described. The ability of DNM-2 to intercalate into DNA was measured by an ethidium bromide displacement assay. Herring Sperm DNA (34 μg ml^−1 final) was premixed with buffer containing ethidium bromide (50 mM Tris base, 100 mM NaCl, 1 mM EDTA, 5 μM EtBr pH 7.5). Ninety-five microlitres of this solution was added to a 96-well plate containing 5 μl of DMSO solutions of compounds. […] Doxorubicin was used as a positive control. The reactions were allowed to incubate for 30 min. Fluorescence was then read on a Gemini microplate reader (Molecular Devices, excitation=545 nm, emission=595 nm).

[1] = In-vivo toxicity assessment, once daily for 10 days; set-up: species or system BALB/c mice; conditions: mice
Protocol: Toxicity was assessed as previously described. Specifically, heparinized whole blood was collected for assessment of total white blood cells, neutrophils, lymphocytes, haematocrit, platelets, creatinine, blood urea, nitrogen, albumin, alanine aminotransferase, alkaline phosphatase and total bilirubin. Mice were euthanized by overdosing with ketamine/xylazine and the heart, lung, kidney, liver, spleen, gastrointestinal tract and the brain were collected for histopathology. Tissue samples were fixed 24 h in 10% neutral buffered formalin, processed and paraffin embedded, sectioned (5 μm thickness) and stained with haematoxylin and eosin. All slides were systematically evaluated by a single board-certified veterinary anatomic pathologist (SL) for evidence of acute or chronic inflammation and toxicity. All lesions were characterized, recorded and scored for severity (minimal=1, mild=2, moderate=3, marked=4, and severe=5).

[2] = 50 mg kg-1 oral gavage once daily for 10 days
[3] = 50 mg kg^−1 oral gavage once daily for 10 days

## Cc1cc(=O)n(C)c2c3c4c(cc12)c(C)cc(=O)n4CO3 [DNM, deoxynybomycin]
Human erythrocytes
  haemolysis: none of these compounds induce haemolysis
S83L E. coli DNA gyrase
  concentration giving significant buildup of OC DNA (P<0.05): 0.17 µM

## CCn1c(=O)cc(C)c2cc3c(C)cc(=O)n4c3c(c21)OC4 [DNM-2]
FQR MRSA (NRS3)
  survival of mice infected with MRSA (NRS3, FQR): ***P<0.005 versus vehicle and CIP; also recorded: significant survival difference relative to both CIP and vehicle-treated control; also recorded: effective in treating mice infected with MRSA
Human topoisomerase II
  concentration inhibiting human topoisomerase II: > 30 µM
Herring Sperm DNA
  concentration with significant DNA intercalation: > 30 µM
[1]; [2]
  ALP: 60 ± 10 U/L
  ALT: 36 ± 1 U/L
  Albumin: 3.2 ± 0.1 g/dL
  BUN (Urea): 32.0 ± 0.4 mg/dL
  Creatine: 0.2 ± 0.0 mg/dL
  Globulin: 2.62 ± 0.05 g/dL
  Hematocrit: 40 ± 1%
  Hemoglobin: 14.2 ± 0.3 g/dL
  Lymphocyte: 81 ± 3 % of WBC
  Mean Cell Volume: 47.3 ± 0.4 fL
  Neutrophil: 18 ± 3 % of WBC
  RBC: 8.5 ± 0.2 X106/µL
  WBC: 3800 ± 300 cells/µL
[1]; 50 mg kg-1 oral gavage once daily for 10 days, counts low because of platelet clumps
  Platelet: 60,000 ± 10,000 cells/µL
[1]; 50 mg kg-1 oral gavage once daily for 10 days, increased also in vehicle due to hemolysis during blood collection
  Total Bilirubin: 0.7 ± 0.1 mg/dL
[1]; [3]
  adipocytes and triglyceride levels: Increased vacuolation of white and brown adipocytes with a minimal increase in triglyceride levels
  haematological and non-haematological toxicity markers: No clinically significant evidence for myelosuppression, renal injury or hepatic toxicity was identified
  histopathology of kidney, brain, lung, liver, spleen, heart and stomach: did not reveal any evidence of toxicity
  histopathology of small intestine sections: mild intestinal dilation associated with villi atrophy
